Measurements taken from US10385031B2, “Substituted piperazines as selective HDAC1,2 inhibitors” (Regenacy Pharmaceuticals, LLC, priority 2016, dated 2019).

Columns and labels:
hERG = hERG (Homo sapiens (Human), UniProt Q12809); assay: hERG inhibition, whole-cell patch clamp; type: cell-based; settings: HEK293 cells stably transfected with hERG
Protocol: For hERG inhibition assays, the cells used were HEK293 cells stably transfected with hERG (cell line obtained from Cytocentrics Inc. 3463 Magic Drive San Antonio, Tex. 78229). Composition of External Solution: NaCl, 137 mM; KCl, 4 mM; MgCl2, 1.0 mM; CaCl2, 1.8 mM; HEPES 10 mM; Dextrose 11 mM; Adjusted to a pH of 7.4 with NaOH. Composition of Internal Solution: KCl, 130.0 mM; MgCl2, 1.0 mM; HEPES, 5.0 mM; EGTA, 5.0 mM; NaCl 7.0 mM. Adjusted to a pH of 7.2 using KOH. Test Concentrations: 0.1, 1, 10, 100 μM. Vehicle: DMSO. Experiments were performed at 34+/−1° C. Current was recorded using the whole-cell patch clamp technique on the Cytopatch automated platform. hERG current was elicited with the following voltage protocol: hERG current amplitude was measured as the peak current at −50 mV (tail current). […] Each cell served as its own control. Data are presented as the IC50 calculated by non-linear regression analysis.

[1] = Rat pharmacokinetics, cassette dosing (IV and PO); type: in vivo; settings: male SD rats; for bioavailability / IV clearance / AUC / Cmax / half-life: rat; for bioavailability: 5 mg/kg; for half-life: read-out: PO T½ (converted)
Protocol: Male SD rats were fasted overnight. Compounds of the invention were dissolved in dimethyl acetamide at 10 times the final concentration, then Solutol HS 15 (BASF) was added to a final concentration of 10%. Finally 80% saline was added and vortexed to achieve a clear solution. For the IV dosing three animals were injected via the foot dorsal vein with 1 mg/kg compound. For the PO dosing 5 mg/kg of compound was delivered by oral gavage. Blood was collected via the tail vein into K2EDTA tubes at 5 minutes, 15 minutes, 30 minutes, 1 hour, 2 hours, 4 hours, 8 hours and 24 hours after dosing. The blood was centrifuged at 2000 g for 5 minutes at 4° C. to obtain plasma. The plasma was extracted with acetonitrile and the level of compound was analyzed by LC/MS/MS. The level of compound in plasma was calculated from a standard curve in rat plasma. The IV clearance (L/h/kg) and area under the curve (h*ng/mL) were calculated using WinNonLin software. The dose adjusted area under the curve for the IV and oral dosing were used to calculate the oral bioavailability.
Pharmacokinetic properties were assessed in a rat cassette dosing experiment. The IV clearance (IV Clr.) is in units of L/hr/kg. The oral maximum plasma concentration (PO Cmax) is in units of ng/ml. The oral plasma half-life (PO T½) is in units of hours. The oral area under the curve (PO AUC) is in units of hours*ng/ml. The fraction absorbed by the oral route (F %) is a percentage of the oral area under the curve to the IV area under the curve, dose adjusted.

HDAC1 = HDAC1 (Homo sapiens (Human), UniProt Q13547); assay: HDAC enzyme assay HDAC1; type: biochemical
Sequence of HDAC1 (Q13547 whole entry): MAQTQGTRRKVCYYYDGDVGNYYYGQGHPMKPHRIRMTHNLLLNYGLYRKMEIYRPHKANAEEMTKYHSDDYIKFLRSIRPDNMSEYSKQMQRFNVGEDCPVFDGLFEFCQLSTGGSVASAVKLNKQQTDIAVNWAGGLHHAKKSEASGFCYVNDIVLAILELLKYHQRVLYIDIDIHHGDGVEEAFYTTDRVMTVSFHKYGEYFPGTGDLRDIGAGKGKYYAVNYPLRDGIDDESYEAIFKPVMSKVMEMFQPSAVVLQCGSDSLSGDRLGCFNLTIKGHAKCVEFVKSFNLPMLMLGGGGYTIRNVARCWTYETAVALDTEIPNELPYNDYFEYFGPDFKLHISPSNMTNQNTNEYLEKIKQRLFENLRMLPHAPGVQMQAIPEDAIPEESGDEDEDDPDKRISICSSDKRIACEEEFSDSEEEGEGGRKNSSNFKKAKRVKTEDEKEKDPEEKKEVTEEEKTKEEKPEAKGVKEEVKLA

HDAC2 = HDAC2 (Homo sapiens (Human), UniProt Q92769); assay: HDAC enzyme assay HDAC2; type: biochemical
Sequence of HDAC2 (Q92769 whole entry): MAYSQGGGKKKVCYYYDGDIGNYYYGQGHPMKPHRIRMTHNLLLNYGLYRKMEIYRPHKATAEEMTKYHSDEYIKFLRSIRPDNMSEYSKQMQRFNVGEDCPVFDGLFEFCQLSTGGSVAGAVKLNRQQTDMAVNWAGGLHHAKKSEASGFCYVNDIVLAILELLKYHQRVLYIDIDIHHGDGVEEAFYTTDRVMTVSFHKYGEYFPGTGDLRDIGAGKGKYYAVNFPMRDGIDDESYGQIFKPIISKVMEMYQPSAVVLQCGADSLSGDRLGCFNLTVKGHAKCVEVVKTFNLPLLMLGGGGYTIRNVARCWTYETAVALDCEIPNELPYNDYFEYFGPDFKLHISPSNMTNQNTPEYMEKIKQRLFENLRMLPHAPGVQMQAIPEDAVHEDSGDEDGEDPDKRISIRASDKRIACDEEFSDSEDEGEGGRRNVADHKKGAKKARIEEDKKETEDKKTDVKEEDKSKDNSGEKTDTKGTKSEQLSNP
Protocol: Compounds for testing were diluted in DMSO to 50 fold the final concentration and a ten-point three-fold dilution series was made. The compounds were diluted in assay buffer (50 mM HEPES, pH 7.4, 100 mM KCl, 0.001% Tween-20, 0.05% BSA, 20 μM TCEP) to 6-fold their final concentration. The HDAC enzymes (purchased from BPS Biosciences) were diluted to 1.5-fold their final concentration in assay buffer. The tripeptide substrate and trypsin at 0.05 μM final concentration were diluted in assay buffer at 6-fold their final concentration. The final enzyme concentrations used in these assays were 3.3 ng/ml (HDAC1), 0.2 ng/ml (HDAC2) and 0.08 ng/ml (HDAC3). The final substrate concentrations used were 16 μM (HDAC1), 10 μM (HDAC2) and 17 μM (HDAC3).
Five μl of compounds and 20 μl of enzyme were added to wells of a black, opaque 384 well plate in duplicate. Enzyme and compound were incubated together at room temperature for 10 minutes. Five μl of substrate was added to each well, the plate was shaken for 60 seconds and placed into a Victor 2 microtiter plate reader. The development of fluorescence was monitored for 60 min and the linear rate of the reaction was calculated. The IC50 was determined using Graph Pad Prism by a four parameter curve fit.

HDAC3 = HDAC3 (Homo sapiens (Human), UniProt O15379); assay: HDAC enzyme assay HDAC3; type: biochemical
Sequence of HDAC3 (O15379 whole entry): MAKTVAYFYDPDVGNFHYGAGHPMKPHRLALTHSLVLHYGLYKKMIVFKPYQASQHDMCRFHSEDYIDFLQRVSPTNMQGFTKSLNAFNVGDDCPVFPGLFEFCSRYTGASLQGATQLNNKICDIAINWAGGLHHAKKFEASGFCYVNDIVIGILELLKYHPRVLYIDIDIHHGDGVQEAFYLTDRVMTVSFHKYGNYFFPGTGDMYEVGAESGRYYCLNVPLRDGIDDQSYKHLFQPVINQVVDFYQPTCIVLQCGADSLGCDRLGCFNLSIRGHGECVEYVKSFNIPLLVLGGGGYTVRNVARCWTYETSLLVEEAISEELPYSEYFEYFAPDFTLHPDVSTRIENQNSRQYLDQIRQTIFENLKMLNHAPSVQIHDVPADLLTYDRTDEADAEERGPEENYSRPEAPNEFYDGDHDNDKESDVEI
Sequence of HDAC3 (Q9Y618 395-489 partner): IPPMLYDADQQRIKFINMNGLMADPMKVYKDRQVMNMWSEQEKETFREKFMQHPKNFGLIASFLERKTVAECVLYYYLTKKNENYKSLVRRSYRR
Protocol: Compounds for testing were diluted in DMSO to 50 fold the final concentration and a ten-point three-fold dilution series was made. The compounds were diluted in assay buffer (50 mM HEPES, pH 7.4, 100 mM KCl, 0.001% Tween-20, 0.05% BSA, 20 μM TCEP) to 6-fold their final concentration. The HDAC enzymes (purchased from BPS Biosciences) were diluted to 1.5-fold their final concentration in assay buffer. The tripeptide substrate and trypsin at 0.05 μM final concentration were diluted in assay buffer at 6-fold their final concentration. The final enzyme concentrations used in these assays were 3.3 ng/ml (HDAC1), 0.2 ng/ml (HDAC2) and 0.08 ng/ml (HDAC3). The final substrate concentrations used were 16 μM (HDAC1), 10 μM (HDAC2) and 17 μM (HDAC3). Five μl of compounds and 20 μl of enzyme were added to wells of a black, opaque 384 well plate in duplicate. Enzyme and compound were incubated together at room temperature for 10 minutes. Five μl of substrate was added to each well, the plate was shaken for 60 seconds and placed into a Victor 2 microtiter plate reader. The development of fluorescence was monitored for 60 min and the linear rate of the reaction was calculated. The IC50 was determined using Graph Pad Prism by a four parameter curve fit. In Table 4 below, letter designations are defined as follows: […]

[2] = test system: CYP1A2, CYP2C9, CYP2C19, CYP3A4, CYP2D6; assay: Cyp inhibition in human liver microsomes (all isozymes); type: in vitro ADME
Protocol: For Cyp inhibition, human liver microsomes from BD Gentest were incubated with Compound 028 or Compound 032 (10, 3.33, 1.11, 0.37, 0.12, 0.04, 0.01 μM) and substrate (CYP1A2: Phenacetin at 30 μM; CYP2C9: Diclofenac at 10 μM; CYP2C19: S-Mephenytoin at 35 μM; CYP3A4: Midazolam at 5 μM and Testosterone at 80 μM; CYP2D6: Bufuralol at 10 μM) for the following incubation times: CYP1A2, 2C9, 2D6: 10 minutes, 37° C.; CYP2C19: 45 minutes, 37° C.; CYP3A4: 5 minutes, 37° C. Substrate conversion was measured by liquid chromatography/mass spectrometry/mass spectrometry (LC/MS/MS). Inhibition was calculated by curve fitting in Graph Pad Prism.

CYP3A4 = CYP3A4 (Homo sapiens (Human), UniProt P08684); assay: Cyp inhibition in human liver microsomes (3A4/midazolam); type: in vitro ADME
Sequence of CYP3A4 (P08684 whole entry): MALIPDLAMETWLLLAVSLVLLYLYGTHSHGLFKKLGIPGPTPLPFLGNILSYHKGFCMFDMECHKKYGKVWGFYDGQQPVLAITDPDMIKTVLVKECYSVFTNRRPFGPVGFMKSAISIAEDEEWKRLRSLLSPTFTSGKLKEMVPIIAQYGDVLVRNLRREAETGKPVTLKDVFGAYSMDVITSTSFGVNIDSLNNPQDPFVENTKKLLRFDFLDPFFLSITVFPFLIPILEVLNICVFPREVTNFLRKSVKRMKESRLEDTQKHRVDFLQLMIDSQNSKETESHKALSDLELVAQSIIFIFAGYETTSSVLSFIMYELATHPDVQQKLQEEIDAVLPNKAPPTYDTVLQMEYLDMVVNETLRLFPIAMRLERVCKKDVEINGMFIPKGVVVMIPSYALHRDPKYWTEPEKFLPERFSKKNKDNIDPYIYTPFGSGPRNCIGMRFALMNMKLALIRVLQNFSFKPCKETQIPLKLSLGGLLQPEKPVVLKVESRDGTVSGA
Protocol: CYP2C9: Diclofenac at 10 μM; CYP2C19: S-Mephenytoin at 35 μM; CYP3A4: Midazolam at 5 μM and Testosterone at 80 μM; CYP2D6: Bufuralol at 10 μM) for the following incubation times: CYP1A2, 2C9, 2D6: 10 minutes, 37° C.; CYP2C19: 45 minutes, 37° C.; CYP3A4: 5 minutes, 37° C. Substrate conversion was measured by liquid chromatography/mass spectrometry/mass spectrometry (LC/MS/MS). Inhibition was calculated by curve fitting in Graph Pad Prism.

[3] = plasma, oral AUC to IV AUC, dose adjusted

Sequence of hERG (Q12809 whole entry): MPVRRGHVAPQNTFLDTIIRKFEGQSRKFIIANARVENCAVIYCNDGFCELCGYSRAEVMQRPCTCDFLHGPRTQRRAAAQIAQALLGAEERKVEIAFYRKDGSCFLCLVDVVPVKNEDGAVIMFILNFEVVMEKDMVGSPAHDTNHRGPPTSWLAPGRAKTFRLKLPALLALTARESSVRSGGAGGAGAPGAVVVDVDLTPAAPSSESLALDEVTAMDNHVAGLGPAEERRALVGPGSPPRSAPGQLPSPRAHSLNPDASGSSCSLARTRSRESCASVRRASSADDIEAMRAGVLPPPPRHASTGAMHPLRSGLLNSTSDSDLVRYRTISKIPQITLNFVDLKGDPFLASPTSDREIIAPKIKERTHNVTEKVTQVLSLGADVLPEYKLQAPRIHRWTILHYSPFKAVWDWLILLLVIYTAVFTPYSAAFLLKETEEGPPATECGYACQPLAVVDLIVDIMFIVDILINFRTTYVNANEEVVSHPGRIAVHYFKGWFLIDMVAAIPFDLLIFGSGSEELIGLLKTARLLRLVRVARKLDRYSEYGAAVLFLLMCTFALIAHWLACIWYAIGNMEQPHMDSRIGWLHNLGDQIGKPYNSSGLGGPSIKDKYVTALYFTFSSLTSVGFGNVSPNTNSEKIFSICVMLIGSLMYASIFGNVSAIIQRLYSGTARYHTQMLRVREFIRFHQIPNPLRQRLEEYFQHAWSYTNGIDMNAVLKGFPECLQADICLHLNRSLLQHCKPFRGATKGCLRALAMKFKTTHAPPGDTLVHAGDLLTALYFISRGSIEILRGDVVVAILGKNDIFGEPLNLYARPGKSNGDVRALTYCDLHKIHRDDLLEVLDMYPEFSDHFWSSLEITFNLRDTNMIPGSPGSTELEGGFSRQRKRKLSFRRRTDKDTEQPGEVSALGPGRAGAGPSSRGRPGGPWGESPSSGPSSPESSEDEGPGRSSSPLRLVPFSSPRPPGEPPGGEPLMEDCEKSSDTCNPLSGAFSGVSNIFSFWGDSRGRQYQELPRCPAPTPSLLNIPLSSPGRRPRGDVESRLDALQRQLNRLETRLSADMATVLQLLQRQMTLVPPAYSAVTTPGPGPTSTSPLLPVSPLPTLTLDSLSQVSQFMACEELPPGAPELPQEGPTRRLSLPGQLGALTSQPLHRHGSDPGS

Compound | IC50 (hERG; 34 °C, tail current) [µM] | bioavailability [1, 3] [%] | IV clearance ([1]; IV 1 mg/kg, plasma) [mL/min/kg] | AUC ([1]; PO 5 mg/kg, plasma) [ng·h/mL] | Cmax ([1]; PO 5 mg/kg, plasma) [ng/mL] | half-life ([1]; PO 5 mg/kg, plasma) [h] | IC50 [2] [µM] | other results
CN1CCN(c2ccc3cc(C(=O)Nc4cc(-c5ccco5)ccc4N)ncc3c2)CC1 [Compound 029] | 5.2 |  |  |  |  |  |  | 
Nc1ccc(-c2ccc(F)cc2)cc1NC(=O)c1ccc2nc(N3CCNCC3)ccc2c1 [Compound 035] |  | 70.5 | 2.83 | 20200 | 1870 | 4.4 |  | IC50 (HDAC1): < 0.01 µM; IC50 (HDAC2): 0.01 to 0.5 µM; IC50 (HDAC3): 0.01 to 0.5 µM
Nc1ccc(-c2ccccc2)cc1NC(=O)c1cc2ccc(N3CCNCC3)cc2cn1 [Compound 022] | 0.4 | 195 | 16.3 | 8180 | 517 | 13.5 | > 10 | 
Nc1ccc(-c2cccs2)cc1NC(=O)c1cnc(N2CCNCC2)cn1 [Compound 040] |  | 151 | 26.7 | 3340 | 211 | 16.7 |  | IC50 (HDAC1): < 0.01 µM; IC50 (HDAC2): < 0.01 µM; IC50 (HDAC3): 0.01 to 0.5 µM
Nc1ccc(-c2ccccc2)cc1NC(=O)c1ccc(N2CCNCC2)nc1 [Compound 006] | 5.1 |  |  |  |  |  | > 10 | 
Nc1ccccc1NC(=O)c1cc2ccc(N3CCNCC3)cc2cn1 [Compound 021] | 4.2 | 89.8 | 94.3 | 763 | 68 | 3.2 |  | 
Nc1ccccc1NC(=O)c1ccc2nc(N3CCNCC3)ccc2c1 [Compound 001] | > 30 |  |  |  |  |  |  | 
Nc1ccc(-c2ccco2)cc1NC(=O)c1ccc2nc(N3CCNCC3)ccc2c1 [Compound 003] | 7.6 | 77 | 3.17 | 19100 | 1910 | 5 | > 10 | 
Nc1ccc(-c2ccc(F)cc2)cc1NC(=O)c1ccc(N2CCNCC2)cn1 [Compound 038] |  |  |  |  |  |  |  | IC50 (hERG; unit inferred): 2.5 µM; IC50 (HDAC1): < 0.01 µM; IC50 (HDAC2): 0.01 to 0.5 µM; IC50 (HDAC3): 0.01 to 0.5 µM
CN1CCN(c2ccc(C(=O)Nc3cc(-c4ccncc4)ccc3N)cn2)CC1 [Compound 027] | > 100 | 78.6 | 10.5 | 6190 | 839 | 3 | > 10 | 
CN1CCN(c2ncc(C(=O)Nc3cc(-c4cccs4)ccc3N)s2)CC1 [Compound 030] |  |  |  |  |  |  | > 10 | IV Clr. ([1]; IV 1 mg/kg, plasma): 8 mL/min/kg; PO AUC ([1]; PO 5 mg/kg, plasma): 15260 ng·h/mL; PO Cmax ([1]; PO 5 mg/kg, plasma): 944 ng/mL; PO T½ ([1]; PO 5 mg/kg, plasma): 12.8 h; F % ([1]; oral AUC to IV AUC, dose adjusted): 170%
Nc1ccc(-c2ccncc2)cc1NC(=O)c1cnc2cc(N3CCNCC3)ccc2c1 [Compound 026] | > 100 |  |  |  |  |  |  | 
CN1CCN(c2ccc(C(=O)Nc3cc(-c4ccncc4)ccc3N)nc2)CC1 [Compound 028] | 38 |  |  |  |  |  |  | IC50 (CYP3A4): 5.9 µM
Nc1ccc(-c2ccoc2)cc1NC(=O)c1cnc2cc(N3CCNCC3)ccc2c1 [Compound 025] |  |  |  |  |  |  | > 10 | 
Cc1nc(N2CCNCC2)sc1C(=O)Nc1cc(-c2cccs2)ccc1N [Compound 031] | 12 |  |  |  |  |  | > 10 | 
Nc1ccc(-c2ccc(F)cc2)cc1NC(=O)c1ccc(N2CCNCC2)nc1 [Compound 036] |  | 69.1 | 7 | 7280 | 500 | 7.3 |  | IC50 (HDAC1): < 0.01 µM; IC50 (HDAC2): 0.01 to 0.5 µM; IC50 (HDAC3): 0.01 to 0.5 µM
Nc1ccc(-c2cccs2)cc1NC(=O)c1ccc(N2CCNCC2)nc1 [Compound 007] | 8.6 |  |  |  |  |  | > 10 | 
Nc1ccc(-c2ccncc2)cc1NC(=O)c1cnc(N2CCNCC2)s1 [Compound 032] | 12 | 9.7 | 17.7 | 456 | 173 | 4.3 |  | IC50 (CYP3A4): 9.5 µM
